Series [1] concerns Pseudomonas aeruginosa. Put plainly: Anti-bacterial activity against Pseudomonas aeruginosa ATCC 27853 by CLSI method. It is filed as functional.
Series [2] can be described thus: Proteolytic stability assessed as trypsin (unknown origin)-mediated compound hydrolysis at compound to trypsin ratio of 0.5 to […] measured after 24 hrs by RP-HPLC method. Particulars: human. The class given is ADME.
Series [3] deals with Candida albicans. The series is described as follows: Antifungal activity against Candida albicans ATCC 90028 after 18 to 24 hrs by Alamar blue assay. It is filed as functional.
In series [4] the test system is Cryptococcus neoformans. Put plainly: Induction of cell lysis in Cryptococcus neoformans ATCC 90113 biofilm assessed as formation of holes at MIC after 1 hr by osmium tetroxide staining based scanning electron microscopic method. The class given is functional.
Series [5] relates to Cryptococcus neoformans. Put plainly: Induction of cell lysis in Cryptococcus neoformans ATCC 90113 biofilm assessed as cytoplasm leakage at MIC after 1 hr by photungstic acid/ammonium molybdate/uranyl acetatebased scanning based transmission electron microscopic method. It is filed as functional.
In series [6] the test system is Aspergillus fumigatus. Put plainly: Antifungal activity against Aspergillus fumigatus ATCC 90906 after 68 to 72 hrs by Alamar blue assay. It is filed as functional.
The test system of series [7] is Lipid bilayer. The series is described as follows: Binding affinity to EYPC/cholesterol small unilamellar vesicles at 0.1 uM by tryptophan fluorescence quenching assay. It is filed as ADME.
The subject of series [8] is Vero. The series is described as follows: Cytotoxicity against African green monkey Vero cells up to 10 ug/ml after 48 hrs by neutral red dye based assay. It is filed as cell-based. Particulars: chlorocebus sabaeus.
The subject of series [9] is Lipid bilayer. Put plainly: Binding affinity to EYPC/EYPG small unilamellar vesicles at 0.1 uM by tryptophan fluorescence quenching assay.
Series [10] in a line: Selectivity index ratio of cytotoxic concentration against African green monkey Vero cells to IC50 for Cryptococcus neoformans ATCC 90113. The class given is toxicity. As to conditions: read-out: Selectivity Index.
Series [11] relates to Cryptococcus neoformans. Put plainly: Antifungal activity against Cryptococcus neoformans ATCC 90113 after 68 to 72 hrs by Alamar blue assay. The class given is functional.
Series [12] relates to Nakaseomyces glabratus. The series is described as follows: Antifungal activity against Candida glabrata ATCC 90030 after 18 to 24 hrs by Alamar blue assay. The class given is functional. As to conditions: for MIC: Nakaseomyces glabratus, ATCC 90030.
The subject of series [13] is Mycobacterium intracellulare. The series is described as follows: Anti-bacterial activity against Mycobacterium intracellulare ATCC 23068 after 68 to 72 hrs by Alamar blue assay. It is filed as functional, cell-based.
The test system of series [14] is Pichia kudriavzevii. Put plainly: Fungicidal activity against Candida krusei ATCC 6258 after 18 to 24 hrs by Alamar blue assay. It is filed as functional.
Series [15] deals with Staphylococcus aureus. The series is described as follows: Bactericidal activity against methicillin-resistant Staphylococcus aureus ATCC 33591 by CLSI method. The class given is functional.
The test system of series [16] is Escherichia coli. Put plainly: Anti-bacterial activity against Escherichia coli ATCC 35218 by CLSI method. The class given is functional.
For series [17], the system named is Nakaseomyces glabratus. The series is described as follows: Fungicidal activity against Candida glabrata ATCC 90030 after 18 to 24 hrs by Alamar blue assay. It is filed as functional.
Series [18] relates to Staphylococcus aureus. The series is described as follows: Anti-bacterial activity against Staphylococcus aureus ATCC 29213 by CLSI method. It is filed as functional. As to conditions: Staphylococcus aureus, ATCC 29213; for IC50: read-out: IC50.
Series [19] deals with Staphylococcus aureus. Put plainly: Anti-bacterial activity against methicillin-resistant Staphylococcus aureus ATCC 33591 by CLSI method. The class given is functional. Particulars: Staphylococcus aureus, ATCC 33591.
The test system of series [20] is Candida albicans. The series is described as follows: Fungicidal activity against Candida albicans ATCC 90028 after 18 to 24 hrs by Alamar blue assay. It is filed as functional.
For series [21], the system named is Cryptococcus neoformans. Put plainly: Fungicidal activity against Cryptococcus neoformans ATCC 90113 after 68 to 72 hrs by Alamar blue assay. It is filed as functional.

≈ marks a conversion by molar mass, not a printed value. Calls of active or inactive are those of the source. No cut-off for these calls is given here. Non-standard residues stand in square brackets, D forms with d. Residues, ends and D or L forms follow the SMILES beside them. Ala(9-anthryl) = N[C@@H](Cc1c2ccccc2cc2ccccc12)C(=O)O; His(τ-Bzl) = N[C@@H](Cc1cn(Cc2ccccc2)cn1)C(=O)O; Bta = N[C@@H](Cc1csc2ccccc12)C(=O)O; Cha = N[C@@H](CC1CCCCC1)C(=O)O; Orn = NCCC[C@H](N)C(=O)O

Here are results for four compounds from ChEMBL document CHEMBL4024712, “Synthesis, stability and mechanistic studies of potent anticryptococcal hexapeptides” (Eur J Med Chem, 2017).

`CC[C@H](C)[C@H](NC(=O)[C@H](CC1CCCCC1)NC(=O)[C@H](Cc1c[nH]c2ccccc12)NC(=O)[C@@H](N)CCCN)C(=O)N[C@H](Cc1ccccc1)C(=O)N[C@@H](Cc1cn(Cc2ccccc2)cn1)C(N)=O` (H-[Orn]W[Cha]I[dF][His(τ-Bzl)]-NH2): the half-maximal inhibitory concentration (IC50) entry in series [1], in [3], in series [6], in series [12] and in series [13] was “Not Active” each time. Besides, in [2], the Stability result was “Stable”. In addition, the outcome in [4], in series [5] and in series [9] was Active. Moreover, the Activity result in [7] and in series [8] was “Non-Toxic” in each case. In [10], the selectivity ratio was in the range of 21 to 25. Further, the minimum inhibitory concentration (MIC) in [11] amounted to 0.63 µg/mL (≈ 0.657 µM). This compound gave an MFC in [14] of 10 µg/mL (≈ 10.4 µM).

Regarding `CC[C@H](C)[C@H](NC(=O)[C@H](CC1CCCCC1)NC(=O)[C@@H](Cc1c[nH]c2ccccc12)NC(=O)[C@@H](N)CCCN)C(=O)N[C@@H](Cc1c2ccccc2cc2ccccc12)C(=O)N[C@@H](Cc1cn(Cc2ccccc2)cn1)C(N)=O` (H-[Orn][dW][Cha]I[Ala(9-anthryl)][His(τ-Bzl)]-NH2), the minimum bactericidal concentration (MBC) in [15] was 10 µg/mL (≈ 9.45 µM). Besides, the IC50 result in [1], in series [6], in [16] and in [13] was “Not Active” throughout. Further, the MFC in [17] was 20 µg/mL (≈ 18.9 µM); in [14], 10 µg/mL (≈ 9.45 µM); in series [20], 20 µg/mL (≈ 18.9 µM). Also, the minimum inhibitory concentration (MIC) is 5 µg/mL (≈ 4.72 µM) in [18], 1.25 µg/mL (≈ 1.18 µM) in series [11], 20 µg/mL (≈ 18.9 µM) in series [12] and 10 µg/mL (≈ 9.45 µM) in series [19]. Besides, the Activity result in series [8] was “Non-Toxic”.

In the case of `CC[C@H](C)[C@H](NC(=O)[C@H](CC1CCCCC1)NC(=O)[C@@H](Cc1c[nH]c2ccccc12)NC(=O)[C@@H](N)CCCN)C(=O)N[C@@H](Cc1csc2ccccc12)C(=O)N[C@@H](Cc1cn(Cc2ccccc2)cn1)C(N)=O` (H-[Orn][dW][Cha]I[Bta][His(τ-Bzl)]-NH2), the IC50 result in series [1] is “Not Active”; in [3], “Not Active”; in series [6] it was “Not Active”; in series [16], “Not Active”; in series [18], 20 µg/mL (≈ 19.7 µM); in series [13], “Not Active”. In addition, the MFC in series [17] and in [14] was 20 µg/mL (≈ 19.7 µM) in each case. For the same compound, the Activity entry in series [8] is “Non-Toxic”. For the same compound, the MIC in [11] came to 1.25 µg/mL (≈ 1.23 µM); in [12] it was 20 µg/mL (≈ 19.7 µM).

Regarding `CC[C@H](C)[C@H](NC(=O)[C@H](CC1CCCCC1)NC(=O)[C@@H](Cc1c[nH]c2ccccc12)NC(=O)[C@@H](N)CCCN)C(=O)N[C@@H](CC1CCCCC1)C(=O)N[C@@H](Cc1cn(Cc2ccccc2)cn1)C(N)=O` (H-[Orn][dW][Cha]I[Cha][His(τ-Bzl)]-NH2), the IC50 entry in series [1] is “Not Active”; in series [3] (Candida albicans, ATCC 90028, read-out: IC50), 17.4 µg/mL (≈ 18 µM); in [6], “Not Active”; in series [16], “Not Active”; in [18], 17.5 µg/mL (≈ 18.1 µM); in series [13], “Not Active”. Further, the MIC in series [3] (Candida albicans, ATCC 90028) amounted to 20 µg/mL (≈ 20.7 µM); in series [12], 20 µg/mL (≈ 20.7 µM). Also, the Activity entry in [7] and in [8] was “Non-Toxic” in each case. Moreover, the minimal fungicidal concentration (MFC) came out at 1.25 µg/mL (≈ 1.3 µM) in series [21], 20 µg/mL (≈ 20.7 µM) in series [14] and 20 µg/mL (≈ 20.7 µM) in [20]. Besides, the result in series [9] was Active. Also, in series [10], the selectivity ratio is 21 to 25.
